The target in assay [1] is T1, N-arachidonyl glycine receptor (Homo sapiens, UniProt Q14330).
T1 sequence (Q14330 whole entry): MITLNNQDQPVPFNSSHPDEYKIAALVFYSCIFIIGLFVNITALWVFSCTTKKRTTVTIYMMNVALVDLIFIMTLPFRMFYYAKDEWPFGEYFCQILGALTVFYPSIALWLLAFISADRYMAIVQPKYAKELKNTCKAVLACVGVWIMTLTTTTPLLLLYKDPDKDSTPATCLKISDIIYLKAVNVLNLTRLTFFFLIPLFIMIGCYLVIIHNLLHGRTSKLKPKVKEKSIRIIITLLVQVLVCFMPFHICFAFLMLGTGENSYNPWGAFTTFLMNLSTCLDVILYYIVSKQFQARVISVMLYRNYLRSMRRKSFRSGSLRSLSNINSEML

For assay [2], the target named is T1, N-arachidonyl glycine receptor. In words: Antagonist activity at human GPR18 receptor expressed in CHO cells assessed as inhibition of THC-induced activation by measuring beta-arrestin2 recruitment. For orientation: Arrestin recruitment assays detect the binding of arrestin to an activated receptor.
For assay [3] the target is unchanged. As to the kind of experiment: Agonist activity at human GPR18 expressed in CHO cells assessed as activation by measuring beta-arrestin2 recruitment incubated for 90 mins by luminescence based assay. The format is functional, cell-based.
For assay [4], the target named is T2, G-protein coupled receptor 55 (Homo sapiens, UniProt Q9Y2T6). In words: Antagonist activity at human GPR55 expressed in CHO-K1 cells assessed as inhibition of beta-arrestin2 recruitment.
The next assay has as its target Cannabinoid receptor 2 (Homo sapiens, UniProt P34972). In words: Displacement of [3H]-CP55940 from human CB2 receptor expressed in CHO cells assessed as inhibition constant by radioligand competition binding assay. The format is cell-based. For orientation: In a radioligand displacement assay an active substance lowers the binding of a labelled ligand.
For assay [5], the target named is T2, G-protein coupled receptor 55. As to the kind of experiment: Agonist activity at human GPR55 expressed in CHO-K1 cells by beta-arrestin2 recruitment assay.
Assay [6] has as its target T3, N-arachidonyl glycine receptor (Mus musculus, UniProt Q8K1Z6).
T3 sequence (Q8K1Z6 whole entry): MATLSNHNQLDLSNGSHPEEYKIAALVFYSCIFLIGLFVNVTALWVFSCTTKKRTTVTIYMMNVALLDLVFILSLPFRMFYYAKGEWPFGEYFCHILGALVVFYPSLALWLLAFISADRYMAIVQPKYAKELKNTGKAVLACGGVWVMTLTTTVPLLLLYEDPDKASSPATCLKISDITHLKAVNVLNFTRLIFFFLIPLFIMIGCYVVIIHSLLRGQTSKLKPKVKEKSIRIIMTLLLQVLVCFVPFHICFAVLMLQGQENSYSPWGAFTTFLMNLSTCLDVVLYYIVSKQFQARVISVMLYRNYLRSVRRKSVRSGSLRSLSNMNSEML
Description: Agonist activity at mouse GPR18 expressed in CHO cells assessed as activation by measuring beta-arrestin2 recruitment incubated for 90 mins by luminescence based assay

In the next assay the target is Cannabinoid receptor 1 (Homo sapiens, UniProt P21554). In words: Displacement of [3H]-CP55940 from human CB1 receptor expressed in CHO cells assessed as inhibition constant by radioligand competition binding assay. In kind it is cell-based. The conditions noted are these: read-out: Ki.
Assay [7] concerns the target T1, N-arachidonyl glycine receptor. As to the kind of experiment: Agonist activity at human GPR18-eYFP and Renilla luc expressed in CHO cells assessed as beta-arrestin2 recruitment by BRET/beta-arrestin2 enzyme complementation assay.
Assay [8] addresses G-protein coupled receptor 183 (Homo sapiens, UniProt P32249). As to the kind of experiment: Agonist activity at human GPR183 expressed in PathHunter CHO-K1 cells assessed as activation by measuring beta-arrestin2 recruitment.

This passage reports IC50, EC50 and Ki results from ChEMBL document CHEMBL5500402, “Potent, Selective Agonists for the Cannabinoid-like Orphan G Protein-Coupled Receptor GPR18: A Promising Drug Target for Cancer and Immunity” (J Med Chem, 2024).

pEC50, pIC50, pKi: −log10 of the molar value.

T2 sequence (Q9Y2T6 whole entry): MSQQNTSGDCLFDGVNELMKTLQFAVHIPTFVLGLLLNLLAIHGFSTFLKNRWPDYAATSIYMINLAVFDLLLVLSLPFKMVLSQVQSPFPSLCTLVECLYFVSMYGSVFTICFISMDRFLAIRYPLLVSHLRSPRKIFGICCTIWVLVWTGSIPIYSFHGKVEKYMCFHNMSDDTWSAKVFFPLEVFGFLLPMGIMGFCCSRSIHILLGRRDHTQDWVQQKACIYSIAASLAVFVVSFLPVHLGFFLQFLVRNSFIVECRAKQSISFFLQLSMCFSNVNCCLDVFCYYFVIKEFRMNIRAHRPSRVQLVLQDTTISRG
Chain of Cannabinoid receptor 2 (P34972 whole entry): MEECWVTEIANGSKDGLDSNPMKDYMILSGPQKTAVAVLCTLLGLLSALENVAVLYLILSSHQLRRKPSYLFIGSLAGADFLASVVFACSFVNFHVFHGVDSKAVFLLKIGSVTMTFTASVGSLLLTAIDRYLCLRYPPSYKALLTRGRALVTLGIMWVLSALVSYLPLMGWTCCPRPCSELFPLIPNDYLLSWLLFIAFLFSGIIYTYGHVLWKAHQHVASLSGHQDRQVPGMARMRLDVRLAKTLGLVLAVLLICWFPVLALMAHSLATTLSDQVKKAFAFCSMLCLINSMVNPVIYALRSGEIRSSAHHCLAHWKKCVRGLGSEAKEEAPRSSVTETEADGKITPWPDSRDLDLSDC
Chain of Cannabinoid receptor 1 (P21554 whole entry): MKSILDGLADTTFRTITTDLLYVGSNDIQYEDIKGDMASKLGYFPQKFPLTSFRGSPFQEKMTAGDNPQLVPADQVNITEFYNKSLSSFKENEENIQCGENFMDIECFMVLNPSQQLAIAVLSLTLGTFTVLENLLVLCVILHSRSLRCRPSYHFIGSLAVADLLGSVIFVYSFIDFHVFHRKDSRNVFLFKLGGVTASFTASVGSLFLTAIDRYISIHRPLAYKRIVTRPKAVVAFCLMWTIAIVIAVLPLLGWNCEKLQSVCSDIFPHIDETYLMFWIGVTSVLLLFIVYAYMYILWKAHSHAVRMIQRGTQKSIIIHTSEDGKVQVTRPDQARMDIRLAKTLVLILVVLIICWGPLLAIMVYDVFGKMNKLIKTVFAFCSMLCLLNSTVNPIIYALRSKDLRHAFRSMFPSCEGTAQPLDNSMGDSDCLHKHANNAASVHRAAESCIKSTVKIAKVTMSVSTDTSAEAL
Chain of G-protein coupled receptor 183 (P32249 whole entry): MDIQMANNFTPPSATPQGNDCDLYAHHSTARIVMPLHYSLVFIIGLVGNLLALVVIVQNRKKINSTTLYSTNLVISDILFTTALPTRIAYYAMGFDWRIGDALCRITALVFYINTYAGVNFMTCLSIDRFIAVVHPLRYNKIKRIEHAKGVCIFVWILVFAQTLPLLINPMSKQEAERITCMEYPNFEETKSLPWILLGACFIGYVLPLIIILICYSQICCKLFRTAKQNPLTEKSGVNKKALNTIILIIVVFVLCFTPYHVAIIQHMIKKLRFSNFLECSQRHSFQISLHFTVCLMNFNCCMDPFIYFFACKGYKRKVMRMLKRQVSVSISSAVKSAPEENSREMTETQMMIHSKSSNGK

The term pIC50 denotes the IC50 on a negative log10 scale, so that one unit is a factor of ten. Regarding `O=C1/C(=C/c2cccc(OCCCCCCOc3ccc(Cl)cc3)c2)N=C2SCCCN12`, the pIC50 in assay [1] is 5.00; in assay [2], 6.31.
For orientation: pEC50 means the EC50 on a negative log10 scale, so that one unit is a factor of ten. The pKi is the Ki on a negative log10 scale, so that one unit is a factor of ten. Regarding `Cn1c(=O)c2c(nc(NCCc3c[nH]c4ccccc34)n2Cc2ccc(Cl)cc2)n(C)c1=O`, the negative-log EC50 (pEC50) is 7.72 in assay [3], < 5.00 in assay [5], 7.27 in assay [6] and 7.42 in assay [7]. Moreover, the pIC50 in [4] was < 5.00. Moreover, the pKi at Cannabinoid receptor 2 was 6.32; at Cannabinoid receptor 1 it was 5.93.
Consider `CCCCCc1cc(O)c2c(c1)OC(C)(C)[C@@H]1CCC(C)=C[C@@H]21` [DRONABINOL], for which the negative logarithm of the EC50 (pEC50) in assay [8] is 7.42; in assay [3] it was 5.47; in assay [6], < 5.00.
